Test results as given in patent US6413990B1, “Arylsulphonamide-substituted benzimidazoles having tryptase-inhibiting activity” (Boehringer Ingelheim Pharma KG, priority 1999, dated 2002).

Key:
rh beta tryptase = biological target: T1, rh beta tryptase (Homo sapiens, UniProt Q15661); assay: tryptase inhibition test (cleavage of N-p-tosyl-Gly-Pro-Lys-para-nitroaniline, p-nitroaniline measured at 405 nm); assay type: biochemical; details: Tris HCl buffer pH 7.4 with calcium and heparin, 37° C., substrate 0.6 mM, 5 minutes pre-incubation, 5 minutes incubation
T1 construct: purchased Promega
T1 sequence (Q15661 31-275): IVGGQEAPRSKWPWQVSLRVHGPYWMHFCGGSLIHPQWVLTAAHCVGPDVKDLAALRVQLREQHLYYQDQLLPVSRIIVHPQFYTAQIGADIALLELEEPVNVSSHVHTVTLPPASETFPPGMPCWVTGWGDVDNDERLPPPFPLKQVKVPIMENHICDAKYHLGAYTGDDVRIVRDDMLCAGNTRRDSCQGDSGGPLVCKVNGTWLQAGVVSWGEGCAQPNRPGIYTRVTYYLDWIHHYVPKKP
Experimental: The compounds according to the invention are characterised by their tryptase-inhibiting activity. This ability to inhibit tryptase was investigated using the test described below.
The measurement is carried out in Tris HCl buffer (100 mM), which additionally contains calcium (5 mM) and heparin ([…]), at pH 7.4. The standard used is rh beta tryptase which may be obtained commercially from Promega, for example. The substrate used is N-p-tosyl-Gly-Pro-Lys-para-nitroaniline in a concentration of 0.6 mM. The substrate is digested with tryptase to form p-nitroaniline which can be measured at 405 nm. Usually, an incubation period of 5 minutes and an incubation temperature of 37° C. are chosen. The enzyme activity used is 0.91 U/ml. The measurements are carried out in an Autoanalyser (Cobas Bio) made by Hofmann LaRoche. The potential inhibitory substances are used in concentrations of 10 μM in the screening, the inhibition of the tryptase being given in percent. The IC50 is determined at over 70% inhibition (concentration at which 50% of the enzyme activity is inhibited). After 5 minutes pre-incubation of the potential inhibitory substances, the substrate is added to start the reaction, the formation of p-nitroaniline being taken as a measurement of the enzyme activity after 5 minutes, after testing the linearity.
The data obtained after carrying out the tests described above (IC50 values) can be found in Table 2.

| IC50 (rh beta tryptase) | melting point | Compound |
| --- | --- | --- |
| 49 nM | 88 to 90 °C | CCN(CC)CCN(c1ccc2c(c1)nc(CCc1ccc(C(=N)N)cc1)n2C)S(=O)(=O)c1ccc(Cl)cc1 [Example 10, N-{2-[2-(4-amidinophenyl)-ethyl]-1-methyl-benzimidazol-5-yl}-N-diethylaminoethyl-(4-chloro-benzenesulphonamide)] |
|  | 156 °C | CCN(CC)CCN(c1ccc2c(c1)nc(CCc1ccc(C(N)=NO)cc1)n2C)S(=O)(=O)c1cccc(Br)c1 [Example 36, N-{2-[2-(4-amino-hydroximinomethyl)phenyl-ethyl]-1-methyl-benzimidazol-5-yl}-N-diethylaminoethyl-(3-bromo-benzenesulphonamide)] |
